target: T1, Androgen Receptor dual T878A/L702H mutant protein (Homo sapiens, UniProt P10275, L702H/T878A); experiment: Dual Mutant (T878A/L702H) Androgen Receptor Degradation Assay (HTRF, MDA-PCa-2b cells); assay type: cell-based; conditions: 18 h, 18 h incubation, read-out: mean asymptote max
T1 construct: host or cells: MDA-PCa-2b
T1 sequence (P10275 1-920 L702H/T878A): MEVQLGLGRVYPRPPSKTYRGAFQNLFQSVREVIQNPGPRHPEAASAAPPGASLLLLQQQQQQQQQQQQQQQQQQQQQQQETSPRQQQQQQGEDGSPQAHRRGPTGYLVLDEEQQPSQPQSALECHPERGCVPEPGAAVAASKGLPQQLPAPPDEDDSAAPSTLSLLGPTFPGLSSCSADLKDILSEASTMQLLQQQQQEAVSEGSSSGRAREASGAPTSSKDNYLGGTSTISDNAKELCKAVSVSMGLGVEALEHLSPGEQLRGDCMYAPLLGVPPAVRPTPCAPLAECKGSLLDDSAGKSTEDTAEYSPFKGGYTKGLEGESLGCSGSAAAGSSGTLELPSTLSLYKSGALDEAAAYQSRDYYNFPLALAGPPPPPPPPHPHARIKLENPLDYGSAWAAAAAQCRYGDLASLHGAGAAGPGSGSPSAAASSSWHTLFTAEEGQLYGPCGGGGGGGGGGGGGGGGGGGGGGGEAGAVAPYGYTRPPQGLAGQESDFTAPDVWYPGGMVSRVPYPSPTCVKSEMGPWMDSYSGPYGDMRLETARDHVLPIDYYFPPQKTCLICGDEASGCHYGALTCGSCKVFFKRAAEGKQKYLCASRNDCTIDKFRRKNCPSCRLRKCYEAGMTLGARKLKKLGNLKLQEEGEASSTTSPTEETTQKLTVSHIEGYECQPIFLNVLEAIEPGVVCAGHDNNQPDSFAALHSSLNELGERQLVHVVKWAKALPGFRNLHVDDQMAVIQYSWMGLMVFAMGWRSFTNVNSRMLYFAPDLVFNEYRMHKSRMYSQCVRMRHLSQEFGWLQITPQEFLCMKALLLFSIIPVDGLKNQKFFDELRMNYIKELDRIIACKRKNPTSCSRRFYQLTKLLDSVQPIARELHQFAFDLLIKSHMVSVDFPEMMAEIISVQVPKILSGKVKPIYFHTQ
Procedure: Degradation of Androgen Receptor dual T878A/L702H mutant protein in human MDA-PCa-2b (ATCC) cells treated with PROTACs was quantified using the HTRF Human Androgen Receptor Detection Kit (PerkinElmer) in 384 well assay plate format. 10 mM DMSO (Sigma-Aldrich) stock solutions of PROTACs were prepared and diluted across an 11 concentration, 3-fold increment range, and 25 nL dispensed into a white opaque bottomed 384 well assay plate (Thermofisher) using an acoustic ECHO dispenser (Labcyte). Cells were cultured in growth medium (BRFF—HPC-1 (Athena ES) supplemented with 20% FBS (Gibco), penicillin 50U/mL and streptomycin 50 μg/mL (Gibco, #15140-122)) in collagen I or poly-D-lysine coated T175 flasks (Corning, #356487 or #356539, respectively). For the assay, cells were harvested from the flask, centrifuged at 200 g for 5 min and then resuspended in the growth medium. 25 μl of cell suspension containing 10,000 cells was dispensed into each well of the assay plate containing the test compounds, which was then incubated for 18 h at 37° C./5% CO2. Control wells were included on each assay plate, with assay medium without cells being the no AR remaining 100% effect control, and cells treated with DMSO vehicle only, without PROTAC, the 0% effect control. After 18 h incubation 8 μl of supplemented lysis buffer from HTRF kit was added to each well and the plate shaken at 500 rpm for 1 h at room temperature. 8 μl of antibody mix in Detection buffer from HTRF kit was added to each well and the plate was incubated for 2 h in dark at mom temperature. The fluorescence was measured at both 620 nm and 665 nm using an excitation wavelength of 337 nm with a PHERAstar microplate reader (BMG Labtech) and the % AR protein remaining in each well was calculated by normalising the HTRF ratio (665 nm signal/620 nm signal) value to the control wells mentioned above. Parameters corresponding to the potency and efficacy estimates of the PROTACs were obtained from these normalised values using curve fitting software (IDBS ActivityBase). These included the DC50 and the Dmax estimates. Two versions of the DC50, called relative DC50 and absolute DC50, were typically generated. These are the inflection point of a fitted 4 parameter sigmoidal response curve and the interpolated concentration of PROTAC corresponding to 50% of the protein being degraded, respectively. The Dmax parameter was the maximum experimentally observed degradation and the asymptote max parameter the fitted response curve asymptote maximum.

CC1(C)[C@H](NC(=O)c2ccc(N3CCC(CN4CCC(n5ncc6c(N7CCC(=O)NC7=O)cc(Cl)cc65)CC4)CC3)c(F)c2)C(C)(C)[C@H]1Oc1ccc(C#N)c2ncccc12 [Example 41, 4-(4-((4-(6-Chloro-4-(2,4-dioxotetrahydropyrimidin-1(2H)-yl)-1H-indazol-1-yl)piperidin-1-yl)methyl)piperidin-1-yl)-/-((1r,3r)-3-((8-cyanoquinolin-5-yl)oxy)-2,2,4,4-tetramethylcyclobutyl)-3-fluorobenzamide] and CC1(C)[C@H](NC(=O)c2ccc(N3CCC(CN4CCC(n5ncc6c(N7CCC(=O)NC7=O)cc(F)cc65)CC4)CC3)c(F)c2)C(C)(C)[C@H]1Oc1ccc(C#N)c2ncccc12 [Example 38, N-((1r,3r)-3-((8-Cyanoquinolin-5-yl)oxy)-2,2,4,4-tetramethylcyclobutyl)-4-(4-((4-(4-(2,4-dioxotetrahydropyrimidin-1(2H)-yl)-6-fluoro-1H-indazol-1-yl)piperidin-1-yl)methyl)piperidin-1-yl)-3-fluorobenzamide] cannot be ordered by Dmax: no less than 50% for the first, no less than 50% for the second.

COc1cc(O[C@H]2C(C)(C)[C@H](NC(=O)c3ccc(N4CCC(CN5CCC(n6ccc7c(N8CCC(=O)NC8=O)cccc76)CC5)CC4)cc3)C2(C)C)ccc1C#N [Example 16, N-((1r,3r)-3-(4-Cyano-3-methoxyphenoxy)-2,2,4,4-tetramethylcyclobutyl)-4-(4-((4-(4-(2,4-dioxotetrahydropyrimidin-1(2H)-yl)-1H-indol-1-yl)piperidin-1-yl)methyl)piperidin-1-yl)benzamide] and CC1(C)[C@H](NC(=O)c2ccc(N3CCC(CN4CCC(n5ccc6c(N7CCC(=O)NC7=O)cccc65)CC4)CC3)c(F)c2)C(C)(C)[C@H]1Oc1ccc(C#N)c2ncccc12 [Example 31, N-((1r,3r)-3-((8-Cyanoquinolin-5-yl)oxy)-2,2,4,4-tetramethylcyclobutyl)-4-(4-((4-(4-(2,4-dioxotetrahydropyrimidin-1(2H)-yl)-1H-indol-1-yl)piperidin-1-yl)methyl)piperidin-1-yl)-3-fluorobenzamide] cannot be ordered by Dmax: no less than 50% for the first, no less than 50% for the second.

CC1(C)[C@H](NC(=O)c2ccc(N3CCC(CN4CC[C@H](n5ncc6c(N7CCC(=O)NC7=O)cccc65)C4)CC3)c(F)c2)C(C)(C)[C@H]1Oc1ccc(C#N)c2ncccc12 [Example 37, N-((1r,3r)-3-((8-Cyanoquinolin-5-yl)oxy)-2,2,4,4-tetramethylcyclobutyl)-4-(4-(((S)-3-(4-(2,4-dioxotetrahydropyrimidin-1(2H)-yl)-1H-indazol-1-yl)pyrrolidin-1-yl)methyl)piperidin-1-yl)-3-fluorobenzamide] and CC1(C)[C@H](NC(=O)c2ccc(N3CCC(CN4CCC(n5ncc6c(N7CCC(=O)NC7=O)cccc65)CC4)CC3)c(F)c2)C(C)(C)[C@H]1Oc1ccc(C#N)c2ncccc12 [Example 6, N-((1r,3r)-3-((8-Cyanoquinolin-5-yl)oxy)-2,2,4,4-tetramethylcyclobutyl)-4-(4-((4-(4-(2,4-dioxotetrahydropyrimidin-1(2H)-yl)-1H-indazol-1-yl)piperidin-1-yl)methyl)piperidin-1-yl)-3-fluorobenzamide] cannot be ordered by Dmax: no less than 50% for the first, no less than 50% for the second.

CC1(C)[C@H](NC(=O)c2ccc(N3CCC(CN4CCC(n5ncc6c(N7CCC(=O)NC7=O)ccnc65)CC4)CC3)c(F)c2)C(C)(C)[C@H]1Oc1ccc(C#N)c2ncccc12 [Example 40, N-((1r,3r)-3-((8-Cyanoquinolin-5-yl)oxy)-2,2,4,4-tetramethylcyclobutyl)-4-(4-((4-(4-(2,4-dioxotetrahydropyrimidin-1(2H)-yl)-1H-pyrazolo[3,4-b]pyridin-1-yl)piperidin-1-yl)methyl)piperidin-1-yl)-3-fluorobenzamide] and CC1(C)[C@H](NC(=O)c2ccc(N3CC[C@H](CN4CCC(n5ncc6c(N7CCC(=O)NC7=O)cccc65)CC4)C3)c(F)c2)C(C)(C)[C@H]1Oc1ccc(C#N)c2ncccc12 [Example 34, N-((1r,3R)-3-((8-Cyanoquinolin-5-yl)oxy)-2,2,4,4-tetramethylcyclobutyl)-4-((R)-3-((4-(4-(2,4-dioxotetrahydropyrimidin-1(2H)-yl)-1H-indazol-1-yl)piperidin-1-yl)methyl)pyrrolidin-1-yl)-3-fluorobenzamide] cannot be ordered by Dmax: no less than 50% for the first, no less than 50% for the second.

First: CC1(C)[C@H](NC(=O)c2ccc(N3CCC(CN4CCC(n5ncc6c(N7CCC(=O)NC7=O)cc(C(F)(F)F)cc65)CC4)CC3)c(F)c2)C(C)(C)[C@H]1Oc1ccc(C#N)c2ncccc12 [Example 42, N-((1r,3r)-3-((8-Cyanoquinolin-5-yl)oxy)-2,2,4,4-tetramethylcyclobutyl)-4-(4-((4-(4-(2,4-dioxotetrahydropyrimidin-1(2H)-yl)-6-(trifluoromethyl)-1H-indazol-1-yl)piperidin-1-yl)methyl)piperidin-1-yl)-3-fluorobenzamide]
Second: CC1(C)[C@H](NC(=O)c2ccc(N3CCC(CN4CC[C@@H](n5ncc6c(N7CCC(=O)NC7=O)cccc65)[C@@H](F)C4)CC3)c(F)c2)C(C)(C)[C@H]1Oc1ccc(C#N)c2ncccc12 [Example 45, N-((1r,3r)-3-((8-Cyanoquinolin-5-yl)oxy)-2,2,4,4-tetramethylcyclobutyl)-4-(4-(((35,4R)-4-(4-(2,4-dioxotetrahydropyrimidin-1(2H)-yl)-1H-indazol-1-yl)-3-fluoropiperidin-1-yl)methyl)piperidin-1-yl)-3-fluorobenzamide]
The Dmax of the first is higher: no less than 50% for the first, 49% for the second.

COc1cc(O[C@H]2C(C)(C)[C@H](NC(=O)c3ccc(N4CCC(CN5CC[C@@H](n6ncc7c(N8CCC(=O)NC8=O)cccc76)[C@@H](F)C5)CC4)c(F)c3)C2(C)C)ccc1C#N [Example 27, N-((1r,3r)-3-(4-Cyano-3-methoxyphenoxy)-2,2,4,4-tetramethylcyclobutyl)-4-(4-(((3,4R)-4-(4-(2,4-dioxotetrahydropyrimidin-1(2H)-yl)-1H-indazol-1-yl)-3-fluoropiperidin-1-yl)methyl)piperidin-1-yl)-3-fluorobenzamide] and CC1(C)[C@H](NC(=O)c2ccc(N3CCC(CN4CCC(n5ncc6c(N7CCC(=O)NC7=O)cccc65)CC4)CC3)c(F)c2)C(C)(C)[C@H]1Oc1ccc(C#N)c2c1CCCO2 [Example 8, N-((1r,3r)-3-((8-Cyanochroman-5-yl)oxy)-2,2,4,4-tetramethylcyclobutyl)-4-(4-((4-(4-(2,4-dioxotetrahydropyrimidin-1(2H)-yl)-1H-indazol-1-yl)piperidin-1-yl)methyl)piperidin-1-yl)-3-fluorobenzamide] cannot be ordered by Dmax: no less than 50% for the first, no less than 50% for the second.

CC1(C)[C@H](NC(=O)c2ccc(N3CCC(CN4CCC(n5ccc6c(N7CCC(=O)NC7=O)ncnc65)CC4)CC3)cc2)C(C)(C)[C@H]1Oc1ccc(C#N)c2ncccc12 [Example 28, N-((1r,3r)-3-((8-Cyanoquinolin-5-yl)oxy)-2,2,4,4-tetramethylcyclobutyl)-4-(4-((4-(4-(2,4-dioxotetrahydropyrimidin-1(2H)-yl)-7H-pyrrolo[2,3-d]pyrimidin-7-yl)piperidin-1-yl)methyl)piperidin-1-yl)benzamide] was tested, and the Dmax was no less than 50%.

— patent US12577231B2, “Androgen receptor PROTACS” (GlaxoSmithKline Intellectual Property Development Limited, priority 2023, dated 2026)
